Data as given in publication PMC8957989, “Binding Affinity Characterization of Four Antennae-Enriched Odorant-Binding Proteins From Harmonia axyridis (Coleoptera: Coccinellidae)” (Frontiers in Physiology, 2022).
Where two headings read alike, the source gives them in different places.

Tests used:
HaxyOBP15 [1] = target: T1, HaxyOBP15 (Harmonia axyridis, UniProt A0A8K1AM29); experiment: Fluorescent probe binding (titration of protein with probe); settings: probe titrated to 2-16 μM, Tris-HCl 50 mM pH 7.4; read-out: dissociation constant of probe with HaxyOBP15
T1 sequence (A0A8K1AM29 entry or part of it): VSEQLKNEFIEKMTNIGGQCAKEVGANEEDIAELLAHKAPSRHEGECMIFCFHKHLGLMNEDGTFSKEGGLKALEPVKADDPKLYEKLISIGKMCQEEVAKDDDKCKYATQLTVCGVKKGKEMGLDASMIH
Experimental: A Cary Eclipse Fluorescence Spectrophotometer (Agilent Technologies, United States) was used to determine the results of the binding assay. N-phenyl-1-naphthylamine (1-NPN) for HaxyOBP15 and 4,4′-Dianilino-1,1′-binaphthyl-5,5′-disulfonic acid dipotassium salt (bis-ANS) for HaxyOBP3, 5, and 12 were chosen as the fluorescent probe. The excitation wavelength was 337 nm of 1-NPN and 295 nm of bis-ANS, and the emission spectrum was recorded between 350 and 500 nm for 1-NPN and between 300 and 550 nm for bis-ANS. The recombinant proteins prepared in Tris–HCl (50 mM, pH 7.4) was titrated with aliquots of 1 mM 1-NPN or bis-ANS to final concentrations ranging from 2 to 16 μM to measure the binding affinity. To further measure the binding affinity of ligands to HaxyOBPs, proteins and fluorescent probe at 2 μM were titrated with aliquots of 1 mM odorants. The binding constant (K1-NPN/bis-ANS) of 1-NPN or bis-ANS to HaxyOBPs was calculated by GraphPad Prism 5 software (GraphPad Software Inc.) with the equation Ki = [IC50]/(1 + [1-NPN]/K1-NPN) or [IC50]/(1 + [bis-ANS]/Kbis-ANS), where [1-NPN]/[bis-ANS] is the free concentration of 1-NPN/bis-ANS, and K1-NPN/Kbis-ANS is the dissociation constant of the protein/1-NPN (bis-ANS).

HaxyOBP15 [2] = target: T1, HaxyOBP15; experiment: Competitive fluorescence binding assay (1-NPN probe); settings: for Ki: Ki = [IC50]/(1 + [1-NPN]/K1-NPN)
Experimental: (§1) The positive plasmid was then transformed into BL21 (DE3) cells for the expression of recombinant proteins, and proteins induced with 0.5 mmol/L isopropyl β-D-1-thiogalactopyranoside (IPTG) for 4 h at 37°C (HaxyOBP3) or 16 h at 15°C (HaxyOBP5, 12, and 15). […] Inclusion bodies were denatured by 8 M urea.
(§2) Protein purification was performed with His-Tag Purification Resin column (Genscript Biology Company, Nanjing, Jiangsu, China) and purified by gradient imidazole buffer (20, 50, 100, 250, and 500 mmol·L^−1). The purity and size of proteins were detected by SDS-PAGE, and concentrations of proteins were measured with bicinchoninic acid (BCA) Protein Assay Kit (ThermoFisher Scientific-Life Technologies, Carlsbad, CA, United States).
(§3) A Cary Eclipse Fluorescence Spectrophotometer (Agilent Technologies, United States) was used to determine the results of the binding assay. N-phenyl-1-naphthylamine (1-NPN) for HaxyOBP15 and 4,4′-Dianilino-1,1′-binaphthyl-5,5′-disulfonic acid dipotassium salt (bis-ANS) for HaxyOBP3, 5, and 12 were chosen as the fluorescent probe.

HaxyOBP5 = HaxyOBP5 (Harmonia axyridis, UniProt A0A8J9RUK3); experiment: Competitive fluorescence binding assay (bis-ANS probe); settings: for Ki: Ki = [IC50]/(1 + [bis-ANS]/Kbis-ANS)
HaxyOBP5, sequence (A0A8J9RUK3 entry or part of it): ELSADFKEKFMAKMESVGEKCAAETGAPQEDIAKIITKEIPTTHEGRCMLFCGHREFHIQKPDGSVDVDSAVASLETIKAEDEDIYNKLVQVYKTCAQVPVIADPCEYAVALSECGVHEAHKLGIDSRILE
Experimental: as §1, §2, §3

HaxyOBP3 = HaxyOBP3 (Harmonia axyridis, UniProt A0A8K1AM44); experiment: as above; settings: recombinant protein and bis-ANS at 2 μM, Tris-HCl 50 mM pH 7.4; for Ki: Ki = [IC50]/(1 + [bis-ANS]/Kbis-ANS)
HaxyOBP3, sequence (A0A8K1AM44 entry or part of it): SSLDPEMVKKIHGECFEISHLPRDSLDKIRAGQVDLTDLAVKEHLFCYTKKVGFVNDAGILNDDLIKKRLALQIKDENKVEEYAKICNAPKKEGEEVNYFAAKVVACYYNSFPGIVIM
Experimental: as §1, §2, §3

HaxyOBP12 = HaxyOBP12 (Harmonia axyridis, UniProt A0A8K1AMY0); experiment: as above; settings: recombinant protein and bis-ANS at 2 μM, Tris-HCl 50 mM pH 7.4; for Ki: Ki = [IC50]/(1 + [bis-ANS]/Kbis-ANS)
HaxyOBP12, sequence (A0A8K1AMY0 entry or part of it): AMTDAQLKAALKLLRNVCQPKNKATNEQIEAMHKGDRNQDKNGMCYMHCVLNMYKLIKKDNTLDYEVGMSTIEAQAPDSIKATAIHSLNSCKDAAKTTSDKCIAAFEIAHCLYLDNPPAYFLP
Experimental: as §1, §2, §3

[3] = recombinant protein and 1-NPN at 2 μM, Tris-HCl 50 mM pH 7.4
[4] = recombinant protein and 1-NPN at 2 μM, Tris-HCl 50 mM pH 7.4, read-out: HaxyOBP15 IC50
[5] = HaxyOBP5 Ki, recombinant protein and bis-ANS at 2 μM, Tris-HCl 50 mM pH 7.4

Row | IC50 (HaxyOBP15 [2]) | Structure (SMILES) | Ki (HaxyOBP15 [2]; [3]) | IC50 (HaxyOBP15 [2]; [4]) | Ki (HaxyOBP5; [5]) | other results
1 |  | c1ccc(Nc2cccc3ccccc23)cc1 [1-NPN, N-phenyl-1-naphthylamine] |  |  |  | Kd (HaxyOBP15 [1]): 5.07 ± 0.31 µM
2 |  | C=CC(=C)CC/C=C(\C)CCC=C(C)C [(E)-β-Farnesene] | 4.33 ± 0.4 µM | 5.81 ± 0.46 µM |  | 
3 |  | CC(=O)CCC1=C(C)CCCC1(C)C [Dihydro-β-ionone] | 24 ± 2.65 µM | 30.9 ± 3.01 µM |  | 
4 |  | CC(=O)OC/C=C(\C)CCC=C(C)C [Geranyl acetate] | 23.4 ± 3.04 µM | 30.3 ± 3.58 µM |  | 
5 |  | COC(=O)c1ccccc1O [Methyl salicylate] |  |  | 11.7 µM | Ki (HaxyOBP5; recombinant protein and bis-ANS at 2 μM, Tris-HCl 50 mM pH 7.4, read-out: HaxyOBP5 Ki): 18.1 ± 1.33 µM; IC50 (HaxyOBP5; recombinant protein and bis-ANS at 2 μM, Tris-HCl 50 mM pH 7.4, read-out: HaxyOBP5 IC50): 26.4 ± 1.96 µM
6 |  | CCCCCCCCC=O [Nonyl aldehyde] | 29.6 ± 1.86 µM | 38.5 ± 2.03 µM |  | 
7 |  | COc1ccc(C=O)cc1 [p-Anisaldehyde] |  |  | 13.4 ± 0.67 µM | IC50 (HaxyOBP3): 34.1 ± 1.06 µM; Ki (HaxyOBP3): 24.4 ± 0.37 µM; IC50 (HaxyOBP5): 19.9 ± 0.7 µM; IC50 (HaxyOBP12): 25.5 ± 1.99 µM; Ki (HaxyOBP12): 16.1 ± 1.21 µM
8 | 12 ± 0.56 µM | CC(=O)/C=C/C1C(C)=CCCC1(C)C (stereo not drawn) [α-Ionone] |  |  |  | 
9 | 6.99 ± 0.21 µM | CC(=O)/C=C/C1=C(C)CCCC1(C)C [β-Ionone] |  |  | 11.7 ± 0.86 µM | IC50 (HaxyOBP3): 25.9 ± 2.85 µM; Ki (HaxyOBP3): 18.8 ± 2.14 µM; IC50 (HaxyOBP5): 17.8 ± 1.52 µM; IC50 (HaxyOBP12): 24 ± 1.56 µM; Ki (HaxyOBP12): 15.2 ± 1.06 µM

Row | Structure (SMILES) | IC50 (HaxyOBP15 [2]) | Ki (HaxyOBP15 [2]; [3]) | IC50 (HaxyOBP15 [2]; [4]) | Ki (HaxyOBP5; [5]) | other results
10 | C=CC(C)(CCC=C(C)C)OC(C)=O (stereo not drawn) [Linalyl acetate] | 40 ± 2.91 µM |  |  |  | 
